Results published in patent US9834571B2, “Compounds for inhibiting cell proliferation in EGFR-driven cancers” (ARIAD Pharmaceuticals, Inc., priority 2012, dated 2017).
pIC50: −log10 of the molar value. Like-named read-outs stand apart in the source and are kept apart here.

Legend:
EGFR L858R = EGFR L858R (Homo sapiens, UniProt P00533, L858R); assay: Kinase inhibitory activity against EGFR bearing the L858R mutation; assay type: biochemical; settings: 10 μM ATP, read-out: IC50 for kinase inhibition, EGFR L858R
Outline: (§1)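 Each assay used 10 μM ATP. Inhibitors were tested as 10-point curves, highest concentration 3 μM, no replicates.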

EGFR L858R/T790M = EGFR L858R/T790M (Homo sapiens, UniProt P00533, L858R/T790M); assay: Kinase inhibitory activity against EGFR bearing the L858R/T790M double mutation; assay type: biochemical; settings: 10 μM ATP, read-out: IC50 for kinase inhibition, EGFR L858R T790M
Outline: as §1

[1] = target: T1, BaF3 cells expressing the target EGFR mutations (Homo sapiens, UniProt P00533, T790M/L858R, cells depend on it); assay: Antiproliferative activity (MTT) against BaF3 cells expressing the target EGFR mutations; assay type: cell-based; settings: BAF3 EGFR L858R-T790M PURO POOL cells, read-out: IC50, BAF3 EGFR L858R-T790M PURO POOL
T1 construct: IC50, BAF3 EGFR L858R-T790M PURO POOL; other: BAF3 EGFR L858R-T790M PURO POOL cells, MTT; IC50, BAF3 EGFR L858R-T790M PURO POOL; other: BAF3 EGFR L858R-T790M PURO POOL cells; MTT
Outline: (§2)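 Antiproliferative effect was measured by MTT in BaF3 cells engineered to express mutant EGFR, with wildtype-EGFR BaF3 cells as the control line.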

[2] = target: T2, BaF3 cells expressing the target EGFR mutations (Homo sapiens, UniProt P00533, T790M, cells depend on it, form not given); assay: as above; assay type: cell-based; settings: BAF3 EGFR DEL T790M PURO POOL cells, read-out: IC50, BAF3 EGFR DEL T790M PURO POOL
T2 construct: IC50, BAF3 EGFR DEL T790M PURO POOL; other: BAF3 EGFR DEL T790M PURO POOL cells, MTT; other: BAF3 EGFR DEL T790M PURO POOL cells; MTT
Outline: as §2

[3] = target: human EGFR (native sequence) (Homo sapiens, UniProt P00533); assay: Kinase inhibitory activity against human EGFR (native sequence); assay type: biochemical; settings: 10 μM ATP, read-out: IC50 for kinase inhibition, EGFR
Outline: as §1

[4] = tested on: BaF3 cells expressing wildtype EGFR; assay: Antiproliferative activity (MTT) against control BaF3 cells expressing wildtype EGFR; assay type: cell-based; settings: Mus musculus
Outline: as §2

[5] = EGFR L858R/T790M double mutation
[6] = 10 pt curves, 3 μM top concentration

EGFR L858R/T790M, sequence (P00533 25-1210 T790M/L858R): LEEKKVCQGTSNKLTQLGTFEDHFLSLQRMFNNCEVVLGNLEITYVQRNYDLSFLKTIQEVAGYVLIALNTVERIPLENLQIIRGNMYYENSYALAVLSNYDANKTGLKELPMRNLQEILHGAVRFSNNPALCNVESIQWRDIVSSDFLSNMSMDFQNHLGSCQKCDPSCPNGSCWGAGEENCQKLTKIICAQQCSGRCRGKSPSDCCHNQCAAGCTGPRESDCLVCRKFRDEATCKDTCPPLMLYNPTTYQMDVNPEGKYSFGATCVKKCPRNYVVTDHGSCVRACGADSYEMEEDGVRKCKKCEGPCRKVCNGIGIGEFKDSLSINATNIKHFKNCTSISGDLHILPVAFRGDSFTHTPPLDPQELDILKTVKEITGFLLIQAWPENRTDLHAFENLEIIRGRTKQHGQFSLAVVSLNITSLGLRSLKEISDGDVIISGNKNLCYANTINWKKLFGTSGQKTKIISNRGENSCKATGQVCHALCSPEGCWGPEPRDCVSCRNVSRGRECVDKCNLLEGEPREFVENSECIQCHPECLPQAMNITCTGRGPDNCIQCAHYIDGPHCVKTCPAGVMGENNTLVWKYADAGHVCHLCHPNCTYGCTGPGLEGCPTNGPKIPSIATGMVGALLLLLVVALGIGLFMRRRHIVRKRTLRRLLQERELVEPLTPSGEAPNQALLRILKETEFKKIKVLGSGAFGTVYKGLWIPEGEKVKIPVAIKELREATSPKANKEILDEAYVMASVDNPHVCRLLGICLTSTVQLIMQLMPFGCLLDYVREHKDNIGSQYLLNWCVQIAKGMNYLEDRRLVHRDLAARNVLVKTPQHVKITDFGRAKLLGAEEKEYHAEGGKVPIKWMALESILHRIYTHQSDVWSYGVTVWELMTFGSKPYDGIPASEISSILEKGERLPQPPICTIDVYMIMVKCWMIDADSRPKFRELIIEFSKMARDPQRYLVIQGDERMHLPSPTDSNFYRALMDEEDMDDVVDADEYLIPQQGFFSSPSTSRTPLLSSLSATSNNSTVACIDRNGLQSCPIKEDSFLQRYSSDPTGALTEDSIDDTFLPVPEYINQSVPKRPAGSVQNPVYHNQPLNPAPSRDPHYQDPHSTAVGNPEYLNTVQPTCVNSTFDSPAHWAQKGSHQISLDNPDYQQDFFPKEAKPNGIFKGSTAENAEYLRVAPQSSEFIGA
T1 sequence (P00533 whole entry T790M/L858R): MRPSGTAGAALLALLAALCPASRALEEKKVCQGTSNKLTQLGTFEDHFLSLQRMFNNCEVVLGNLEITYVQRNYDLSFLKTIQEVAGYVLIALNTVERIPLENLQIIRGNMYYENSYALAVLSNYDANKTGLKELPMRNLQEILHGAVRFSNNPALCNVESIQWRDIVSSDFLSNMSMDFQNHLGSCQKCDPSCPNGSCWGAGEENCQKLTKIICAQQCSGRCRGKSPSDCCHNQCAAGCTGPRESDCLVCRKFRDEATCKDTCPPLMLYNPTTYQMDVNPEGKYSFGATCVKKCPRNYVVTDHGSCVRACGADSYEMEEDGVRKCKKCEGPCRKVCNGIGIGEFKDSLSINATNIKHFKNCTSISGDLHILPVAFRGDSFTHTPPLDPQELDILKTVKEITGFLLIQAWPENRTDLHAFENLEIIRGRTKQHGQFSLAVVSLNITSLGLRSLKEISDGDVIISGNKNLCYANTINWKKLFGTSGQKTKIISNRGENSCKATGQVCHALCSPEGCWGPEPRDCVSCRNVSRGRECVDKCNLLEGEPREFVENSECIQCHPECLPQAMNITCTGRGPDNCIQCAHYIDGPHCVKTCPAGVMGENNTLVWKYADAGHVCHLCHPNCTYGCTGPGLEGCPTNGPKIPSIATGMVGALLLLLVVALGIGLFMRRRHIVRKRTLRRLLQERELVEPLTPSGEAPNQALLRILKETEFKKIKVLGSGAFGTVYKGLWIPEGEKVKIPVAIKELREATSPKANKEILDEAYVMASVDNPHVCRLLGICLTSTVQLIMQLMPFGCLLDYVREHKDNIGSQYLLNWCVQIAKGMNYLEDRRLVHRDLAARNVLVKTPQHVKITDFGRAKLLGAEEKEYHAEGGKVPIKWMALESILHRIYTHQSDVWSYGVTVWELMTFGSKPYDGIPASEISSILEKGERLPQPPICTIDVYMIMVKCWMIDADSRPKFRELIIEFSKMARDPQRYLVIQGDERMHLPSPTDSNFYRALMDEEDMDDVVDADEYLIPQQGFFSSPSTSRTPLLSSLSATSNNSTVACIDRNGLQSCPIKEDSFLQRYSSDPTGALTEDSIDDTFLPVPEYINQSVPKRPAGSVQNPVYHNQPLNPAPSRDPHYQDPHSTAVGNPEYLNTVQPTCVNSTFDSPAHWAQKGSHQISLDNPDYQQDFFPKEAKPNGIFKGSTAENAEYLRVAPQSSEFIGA
EGFR L858R, sequence (P00533 25-1210 L858R): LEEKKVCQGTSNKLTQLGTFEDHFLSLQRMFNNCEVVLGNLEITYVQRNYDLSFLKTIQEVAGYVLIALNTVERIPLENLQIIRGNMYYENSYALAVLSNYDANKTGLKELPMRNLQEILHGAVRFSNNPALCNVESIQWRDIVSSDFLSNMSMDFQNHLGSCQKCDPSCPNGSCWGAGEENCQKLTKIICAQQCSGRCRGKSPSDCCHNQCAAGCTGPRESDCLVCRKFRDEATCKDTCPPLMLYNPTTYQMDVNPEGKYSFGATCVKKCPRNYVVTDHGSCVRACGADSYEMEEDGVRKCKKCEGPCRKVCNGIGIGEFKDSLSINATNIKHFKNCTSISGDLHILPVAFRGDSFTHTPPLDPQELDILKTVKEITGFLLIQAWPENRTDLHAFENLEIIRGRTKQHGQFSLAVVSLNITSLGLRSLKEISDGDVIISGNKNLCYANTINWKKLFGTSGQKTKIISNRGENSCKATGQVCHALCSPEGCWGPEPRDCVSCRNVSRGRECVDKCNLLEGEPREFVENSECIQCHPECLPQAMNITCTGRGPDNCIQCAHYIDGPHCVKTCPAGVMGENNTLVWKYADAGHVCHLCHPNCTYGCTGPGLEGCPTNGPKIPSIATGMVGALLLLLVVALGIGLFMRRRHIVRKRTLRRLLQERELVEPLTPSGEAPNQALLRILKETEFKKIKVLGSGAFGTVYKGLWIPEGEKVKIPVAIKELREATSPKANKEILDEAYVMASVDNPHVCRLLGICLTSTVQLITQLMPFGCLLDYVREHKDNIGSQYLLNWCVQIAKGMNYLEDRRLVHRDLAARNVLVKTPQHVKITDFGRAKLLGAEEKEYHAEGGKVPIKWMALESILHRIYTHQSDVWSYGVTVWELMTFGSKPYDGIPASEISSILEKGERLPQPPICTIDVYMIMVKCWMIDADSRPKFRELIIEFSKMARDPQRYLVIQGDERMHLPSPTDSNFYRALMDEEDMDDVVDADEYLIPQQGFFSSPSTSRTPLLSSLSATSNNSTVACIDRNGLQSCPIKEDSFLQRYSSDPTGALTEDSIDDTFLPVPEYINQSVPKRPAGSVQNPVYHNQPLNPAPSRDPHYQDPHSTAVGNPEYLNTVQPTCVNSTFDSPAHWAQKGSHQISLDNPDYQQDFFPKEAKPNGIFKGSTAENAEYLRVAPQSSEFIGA
T2 sequence (P00533 with tags, fused parts or gaps DEL746-750/T790M, form open): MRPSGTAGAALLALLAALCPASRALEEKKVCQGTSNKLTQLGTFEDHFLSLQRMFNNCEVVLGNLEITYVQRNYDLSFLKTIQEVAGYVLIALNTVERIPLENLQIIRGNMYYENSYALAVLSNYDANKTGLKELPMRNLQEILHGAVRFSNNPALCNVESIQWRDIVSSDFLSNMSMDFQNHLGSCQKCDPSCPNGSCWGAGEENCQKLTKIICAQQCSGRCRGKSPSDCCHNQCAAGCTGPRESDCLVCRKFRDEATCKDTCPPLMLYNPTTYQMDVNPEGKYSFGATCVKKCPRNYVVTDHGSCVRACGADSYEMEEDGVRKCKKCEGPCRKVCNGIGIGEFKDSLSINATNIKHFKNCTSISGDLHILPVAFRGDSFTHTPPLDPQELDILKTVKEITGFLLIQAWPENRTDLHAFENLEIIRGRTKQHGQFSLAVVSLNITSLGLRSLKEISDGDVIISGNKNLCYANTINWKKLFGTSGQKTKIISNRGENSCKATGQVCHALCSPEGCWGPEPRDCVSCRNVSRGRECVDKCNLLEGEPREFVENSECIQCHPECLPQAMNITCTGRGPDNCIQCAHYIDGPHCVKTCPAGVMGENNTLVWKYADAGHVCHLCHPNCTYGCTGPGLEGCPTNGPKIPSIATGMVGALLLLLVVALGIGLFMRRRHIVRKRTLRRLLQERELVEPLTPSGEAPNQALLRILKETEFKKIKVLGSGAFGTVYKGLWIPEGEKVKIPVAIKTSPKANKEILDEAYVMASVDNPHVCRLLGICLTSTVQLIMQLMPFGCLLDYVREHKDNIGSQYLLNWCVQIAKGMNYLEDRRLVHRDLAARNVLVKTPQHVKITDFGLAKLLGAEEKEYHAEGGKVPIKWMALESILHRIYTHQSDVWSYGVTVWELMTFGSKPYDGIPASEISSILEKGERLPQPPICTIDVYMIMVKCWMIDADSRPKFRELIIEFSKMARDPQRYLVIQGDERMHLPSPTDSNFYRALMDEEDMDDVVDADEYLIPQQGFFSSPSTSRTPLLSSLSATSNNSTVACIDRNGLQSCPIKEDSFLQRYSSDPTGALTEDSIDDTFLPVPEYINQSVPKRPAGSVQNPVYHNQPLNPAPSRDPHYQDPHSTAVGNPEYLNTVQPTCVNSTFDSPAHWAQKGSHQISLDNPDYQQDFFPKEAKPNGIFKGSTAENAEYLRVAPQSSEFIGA

With C=CC(=O)Nc1cc(Nc2ncc(Cl)c(Nc3ccccc3P(C)(C)=O)n2)c(OC)cc1N1CCC(N2CCCCC2)C1 (stereo not drawn) [Example 33, N-(5-((5-chloro-4-((2-(dimethylphosphoryl)phenyl)amino)pyrimidin-2-yl)amino)-4-methoxy-2-(3-(piperidin-1-yl)pyrrolidin-1-yl)phenyl)acrylamide] the pIC50 (EGFR L858R; EGFR L858R) was > 7.30, the pIC50 (EGFR L858R/T790M; [5]) was > 7.30 and the GI50 [1] was < 50 nM. For the same compound, the GI50 [2] was < 50 nM, the pIC50 ([3]; human EGFR native sequence) was > 7.30 and the pIC50 ([4]; BAF3 PARENTAL cells (control)) was ≤ 6.60.
With C=CC(=O)Nc1cc(Nc2ncc(Cl)c(Nc3ccccc3P(C)(C)=O)n2)c(OC)cc1O[C@@H]1CCCN(C)C1 (single isomer, unassigned) [Example 14] the pIC50 (EGFR L858R; EGFR L858R) was > 7.30, the pIC50 (EGFR L858R/T790M; [5]) was > 7.30 and the GI50 [1] was < 50 nM. The GI50 [2] was < 50 nM, the pIC50 ([3]; human EGFR native sequence) was > 7.30 and the pIC50 ([4]; BAF3 PARENTAL cells (control)) was ≤ 6.60.
With COCC1CCCN1CCC#CC(=O)Nc1cc(Nc2ncc(Cl)c(Nc3ccccc3P(C)(C)=O)n2)c(OC)cc1N1CCOCC1 (stereo not drawn) [Example 122, N-(5-((5-chloro-4-((2-(dimethylphosphoryl)phenyl)amino)pyrimidin-2-yl)amino)-4-methoxy-2-morpholinophenyl)-5-(2-(methoxymethyl)pyrrolidin-1-yl)pent-2-ynamide] the pIC50 (EGFR L858R; [6]) was > 7.30, the pIC50 (EGFR L858R/T790M; [6]) was > 7.30 and the GI50 [1] was < 50 nM. For the same compound, the GI50 [2] was < 50 nM, the pIC50 [3, 6] was > 7.30 and the pIC50 ([4]; BAF3 parental cells) was ≤ 6.60.
COc1ccc(NC(=O)C2=CCCCC2)cc1Nc1ncc(Cl)c(Nc2ccccc2P(C)(C)=O)n1 [Example 79, N-(3-((5-chloro-4-((2-(dimethylphosphoryl)phenyl)amino)pyrimidin-2-yl)amino)-4-methoxyphenyl)cyclohex-1-enecarboxamide] was tested, and the pIC50 (EGFR L858R; EGFR L858R) was ≤ 6.60, the pIC50 (EGFR L858R/T790M; [5]) was ≤ 6.60 and the GI50 [1] was ≥ 250 nM. The GI50 [2] was ≥ 250 nM, the pIC50 ([3]; human EGFR native sequence) was ≤ 6.60 and the pIC50 ([4]; BAF3 PARENTAL cells (control)) was ≤ 6.60.
With C=CC(=O)Nc1cc(Nc2ncc(Cl)c(Nc3ccccc3P(C)(C)=O)n2)c(OC)cc1N1CCC(N)C1 (stereo not drawn) [Example 57, N-(2-(3-aminopyrrolidin-1-yl)-5-((5-chloro-4-((2-(dimethylphosphoryl)phenyl)amino)pyrimidin-2-yl)amino)-4-methoxyphenyl)acrylamide] the pIC50 (EGFR L858R; EGFR L858R) was > 7.30, the pIC50 (EGFR L858R/T790M; [5]) was > 7.30 and the GI50 [1] was ≥ 250 nM. For the same compound, the GI50 [2] was ≥ 250 nM, the pIC50 ([3]; human EGFR native sequence) was > 7.30 and the pIC50 ([4]; BAF3 PARENTAL cells (control)) was ≤ 6.60.
For C=CC(=O)Nc1cc(Nc2ncc(Cl)c(Nc3ccccc3P(C)(C)=O)n2)c(OC)cc1OCCN1CCCCC1 [Example 8, N-(5-((5-chloro-4-((2-(dimethylphosphoryl)phenyl)amino)pyrimidin-2-yl)amino)-4-methoxy-2-(2-(piperidin-1-yl)ethoxy)phenyl)acrylamide], the pIC50 (EGFR L858R; EGFR L858R) was > 7.30, the pIC50 (EGFR L858R/T790M; [5]) was > 7.30 and the GI50 [1] was < 50 nM. The GI50 [2] was < 50 nM, the pIC50 ([3]; human EGFR native sequence) was > 7.30 and the pIC50 ([4]; BAF3 PARENTAL cells (control)) was ≤ 6.60.
In the case of C=C(CN1CCOCC1)C(=O)Nc1ccc(OC)c(Nc2ncc(Cl)c(Nc3ccccc3P(C)(C)=O)n2)c1 [Example 48, N-(3-((5-chloro-4-((2-(dimethylphosphoryl)phenyl)amino)pyrimidin-2-yl)amino)-4-methoxyphenyl)-2-(morpholinomethyl)acrylamide], the pIC50 (EGFR L858R; EGFR L858R) was > 7.30, the pIC50 (EGFR L858R/T790M; [5]) was > 7.30 and the GI50 [1] was < 50 nM. For the same compound, the GI50 [2] was < 50 nM, the pIC50 ([3]; human EGFR native sequence) was > 7.30 and the pIC50 ([4]; BAF3 PARENTAL cells (control)) was ≤ 6.60.
With C=CC(=O)Nc1cc(Nc2ncc(Cl)c(Nc3ccccc3S(=O)(=O)C(C)C)n2)c(OC)cc1C#CCN(C)C [Example 153, N-(5-((5-chloro-4-((2-(isopropylsulfonyl)phenyl)amino)pyrimidin-2-yl)amino)-2-(3-(dimethylamino)prop-1-yn-1-yl)-4-methoxyphenyl)acrylamide] the pIC50 (EGFR L858R; [6]) was > 7.30, the pIC50 (EGFR L858R/T790M; [6]) was > 7.30 and the GI50 [1] was < 50 nM. For the same compound, the GI50 [2] was < 50 nM, the pIC50 [3, 6] was > 7.30 and the pIC50 ([4]; BAF3 parental cells) was ≤ 6.60.
With COc1ccc(NC(=O)CCl)cc1Nc1ncc(Cl)c(Nc2ccccc2P(C)(C)=O)n1 [Example 137, 2-chloro-N-(3-((5-chloro-4-((2-(dimethylphosphoryl)phenyl)amino)pyrimidin-2-yl)amino)-4-methoxyphenyl)acetamide] the pIC50 (EGFR L858R; [6]) was > 7.30, the pIC50 (EGFR L858R/T790M; [6]) was > 7.30 and the GI50 [1] was < 50 nM. The GI50 [2] was < 50 nM, the pIC50 [3, 6] was > 7.30 and the pIC50 ([4]; BAF3 parental cells) was ≤ 6.60.
